From patent US20240116985A1, “STAPLED PEPTIDES AND METHODS THEREOF” (priority 2020, published 2024)
pIC50: −log10 of the molar value.

Molecular target: T1, full-length beta-Catenin (Uniprot ID P35222) (Homo sapiens, UniProt P35222)
T1 construct: 10 nM full-length beta-Catenin (Uniprot ID P35222)
T1 sequence (P35222 1-781): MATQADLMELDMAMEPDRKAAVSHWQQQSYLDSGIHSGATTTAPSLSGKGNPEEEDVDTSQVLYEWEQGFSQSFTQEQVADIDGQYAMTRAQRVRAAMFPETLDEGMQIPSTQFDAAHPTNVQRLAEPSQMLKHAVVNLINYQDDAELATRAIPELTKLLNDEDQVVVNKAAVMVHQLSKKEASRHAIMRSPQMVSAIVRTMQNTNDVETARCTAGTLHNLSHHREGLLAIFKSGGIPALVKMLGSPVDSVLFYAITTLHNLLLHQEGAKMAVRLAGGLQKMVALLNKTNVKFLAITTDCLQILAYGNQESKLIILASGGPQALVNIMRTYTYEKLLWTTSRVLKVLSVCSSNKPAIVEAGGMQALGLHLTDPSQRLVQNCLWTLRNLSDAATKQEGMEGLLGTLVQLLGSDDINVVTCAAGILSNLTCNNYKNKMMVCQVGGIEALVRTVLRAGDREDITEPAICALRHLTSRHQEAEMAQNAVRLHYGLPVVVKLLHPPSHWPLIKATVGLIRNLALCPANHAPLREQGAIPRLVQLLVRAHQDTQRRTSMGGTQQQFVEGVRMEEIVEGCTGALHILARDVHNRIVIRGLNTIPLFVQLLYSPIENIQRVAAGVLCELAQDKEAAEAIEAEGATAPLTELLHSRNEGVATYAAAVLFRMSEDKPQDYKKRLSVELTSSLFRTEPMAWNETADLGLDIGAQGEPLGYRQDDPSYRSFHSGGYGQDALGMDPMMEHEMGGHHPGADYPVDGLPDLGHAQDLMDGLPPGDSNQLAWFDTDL
Assay: Fluorescence polarization IC50 (beta-catenin / 5FAM-TCF4 10-53 competition)
Format: binding
Details: fluorescence polarization; read-out: beta-Catenin FP IC50

Work on `CC(=O)N1CCC[C@]12CC=CCCCC1(CCCC=CCCOC(=O)N3CCC(C(=O)N[C@@H](Cc4ccsc4)C(=O)N[C@@H](Cc4csc5ccccc45)C(=O)N[C@@H](C)C(N)=O)(CC3)NC(=O)[C@H](CC(C)C)NC(=O)[C@H](Cc3ccccc3)NC(=O)[C@H](C)NC(=O)[C@H](CCC(N)=O)NC(=O)[C@H](Cc3cccc(C(=O)O)c3)NC(=O)[C@H](CC(=O)O)NC1=O)NC(=O)[C@H](CC(C)(C)C)NC(=O)[C@H](CC(=O)O)NC2=O` (stereo partly drawn) [I-2591, Ac-PL3-Asp-Npg-B5-Asp-3COOHF-Gln-Ala-Phe-Leu-SPip1-3Thi-BztA-Ala-NH2] yielded a pIC50 of 6.22.
In the case of `CC(=O)N1CCC[C@]12CC=CCCCC1(CCCC=CCCCOC(=O)N3CC[C@@](C(=O)N[C@@H](Cc4ccsc4)C(=O)N[C@@H](Cc4csc5ccccc45)C(=O)N[C@@H](CCC(N)=O)C(N)=O)(C3)NC(=O)[C@H](CC(N)=O)NC(=O)[C@H](Cc3cccc(Cl)c3)NC(=O)[C@H](C)NC(=O)[C@H](C)NC(=O)[C@H]([C@@H](C)O)NC(=O)[C@H](CC(N)=O)NC1=O)NC(=O)[C@H](CC(C)(C)C)NC(=O)[C@H](CC(=O)O)NC2=O` (stereo partly drawn) [I-2013, Ac-PL3-Asp-Npg-B5-Asn-Thr-Ala-Ala-3C1F-Asn-PyrS2-3Thi-BztA-Gln-NH2], the pIC50 was 6.18.
`CC(=O)N1CCC[C@]12CC=CCCCC1(CCCC=CCCCOC(=O)N3CC[C@@](C(=O)N[C@@H](Cc4ccsc4)C(=O)N[C@@H](Cc4csc5ccccc45)C(=O)N[C@@H](CCC(N)=O)C(N)=O)(C3)NC(=O)[C@H](Cc3c[nH]cn3)NC(=O)[C@H](Cc3ccccc3)NC(=O)[C@H](C)NC(=O)[C@H](C)NC(=O)[C@H]([C@@H](C)O)NC(=O)[C@H](CC(N)=O)NC1=O)NC(=O)[C@H](CC(C)(C)C)NC(=O)[C@H](CC(=O)O)NC2=O` (stereo partly drawn) [I-2146, Ac-PL3-Asp-Npg-B5-Asn-Thr-Ala-Ala-Phe-His-PyrS2-3Thi-BztA-Gln-NH2] gave a pIC50 of 6.61.
With `CC(=O)N1CCC[C@]12CC=CCCCCC1(CCCCC=CCCOC(=O)N3CC[C@@](C(=O)N[C@@H](Cc4ccccc4C(F)(F)F)C(=O)N[C@@H](Cc4csc5ccccc45)C(=O)N[C@@H](C)C(N)=O)(C3)NC(=O)[C@H](CC(C)C)NC(=O)[C@H](Cc3ccccc3)NC(=O)[C@H](C)NC(=O)[C@H](CCC(N)=O)NC(=O)[C@H](Cc3cccc(C(=O)O)c3)NC(=O)[C@H](CC(=O)O)NC1=O)NC(=O)[C@H](CC(C)(C)C)NC(=O)[C@H](CC(=O)O)NC2=O` (stereo partly drawn) [I-2519, Ac-PL3-Asp-Npg-B6-Asp-3COOHF-Gln-Ala-Phe-Leu-PyrS1-2F3MeF-BztA-Ala-NH2] the pIC50 was 7.03.
`CC(=O)N1CCC[C@]12CC=CCCCCC1(CCCCC=CCOC(=O)N3CC[C@@](C(=O)N[C@@H](Cc4ccccc4C(F)(F)F)C(=O)N[C@@H](Cc4csc5ccccc45)C(=O)N[C@@H](CCC(N)=O)C(N)=O)(C3)NC(=O)[C@H](CC(C)C)NC(=O)[C@H](Cc3ccccc3)NC(=O)[C@H](C)NC(=O)[C@H](C)NC(=O)[C@H](Cc3cccc(C(=O)O)c3)NC(=O)[C@H](CC(=O)O)NC1=O)NC(=O)[C@H](CC(C)(C)C)NC(=O)[C@H](CC(=O)O)NC2=O` (stereo partly drawn) [I-2505, Ac-PL3-Asp-Npg-B6-Asp-3COOHF-Ala-Ala-Phe-Leu-PyrS-2F3MeF-BztA-Gln-NH2] was tested, and the pIC50 was 6.16.
`CC(=O)N1CCC[C@]12CC=CCCCC1(CCCC=CCCCOC(=O)N3CC(C(=O)N[C@@H](Cc4ccsc4)C(=O)N[C@@H](Cc4csc5ccccc45)C(=O)N[C@@H](CCC(N)=O)C(N)=O)(C3)NC(=O)[C@H](CC(C)C)NC(=O)[C@H](Cc3ccccc3)NC(=O)[C@H](C)NC(=O)C(C)(C)NC(=O)[C@H](Cc3cccc(C(=O)O)c3)NC(=O)[C@H](CC(=O)O)NC1=O)NC(=O)[C@H](CC(C)(C)C)NC(=O)[C@H](CC(=O)O)NC2=O` (stereo partly drawn) [I-2617, Ac-PL3-Asp-Npg-B5-Asp-3COOHF-Aib-Ala-Phe-Leu-Az2-3Thi-BztA-Gln-NH2] was tested, and the pIC50 was 6.89.
`CC(C)C[C@@H]1NC(=O)[C@H](Cc2ccccc2)NC(=O)[C@H](C)NC(=O)[C@H](C)NC(=O)[C@H](CN(CC(=O)O)CC(F)(F)F)NC(=O)[C@H](CC(=O)O)NC(=O)C2(CCCCCCCCOC(=O)N3CC[C@@](C(=O)N[C@@H](Cc4ccsc4)C(=O)N[C@@H](Cc4csc5ccccc45)C(=O)N[C@@H](CCC(N)=O)C(N)=O)(C3)NC1=O)CCCCCCOc1cccc(c1)C(=O)N1CCC[C@H]1C(=O)N[C@@H](CC(=O)O)C(=O)N[C@@H](CC(C)(C)C)C(=O)N2` (stereo partly drawn) [I-2377, ProBzAm3OAllyl-Asp-Npg-B5-Asp-TfeGA-Ala-Ala-Phe-Leu-PyrS2-3Thi-BztA-Gln-NH2] showed a pIC50 of 6.01.
For `CC(=O)N1CCC[C@]12CC=CCCCC1(CCCC=CCCCOC(=O)N3CC[C@@](C(=O)N[C@@H](Cc4ccsc4)C(=O)N[C@@H](Cc4csc5ccccc45)C(=O)N[C@@H](CCC(N)=O)C(N)=O)(C3)NC(=O)[C@H](CCC(=O)N3CCC(N4CCN(C)CC4)CC3)NC(=O)[C@H](Cc3ccccc3)NC(=O)[C@H](C)NC(=O)[C@H](C)NC(=O)[C@H](CN(CC(=O)O)CC(F)(F)F)NC(=O)[C@H](CC(=O)O)NC1=O)NC(=O)[C@H](CC(C)(C)C)NC(=O)[C@H](CC(=O)O)NC2=O` (stereo partly drawn) [I-1937, Ac-PL3-Asp-Npg-B5-Asp-TfeGA-Ala-Ala-Phe-[4MePpzPip]GlnR-PyrS2-3Thi-BztA-Gln-NH2], the pIC50 was 8.05.
`CC(=O)N1CCC[C@]12CC=CCCCC1(CCCC=CCCCOC(=O)N3CC[C@@](C(=O)N[C@@H](Cc4ccsc4)C(=O)N[C@@H](Cc4csc5ccccc45)C(=O)N[C@@H](CCC(N)=O)C(N)=O)(C3)NC(=O)[C@H]([C@@H](C)O)NC(=O)[C@H](Cc3ccccc3)NC(=O)[C@H](C)NC(=O)[C@H](C)NC(=O)[C@H]([C@@H](C)O)NC(=O)[C@H](CC(N)=O)NC1=O)NC(=O)[C@H](CC(C)(C)C)NC(=O)[C@H](CC(=O)O)NC2=O` (stereo partly drawn) [I-1621, Ac-PL3-Asp-Npg-B5-Asn-Thr-Ala-Ala-Phe-Thr-PyrS2-3Thi-BztA-Gln-NH2] was tested, and the pIC50 was 6.58.
Work on `CC(=O)N1CCC[C@]12CC=CCCCC1(CCCC=CCCCOC(=O)N3CC[C@](C(=O)N[C@@H](Cc4ccsc4)C(=O)N[C@@H](Cc4csc5ccccc45)C(=O)N[C@@H](CCC(N)=O)C(N)=O)(C3)NC(=O)[C@H](CC(N)=O)NC(=O)[C@H](Cc3ccccc3)NC(=O)[C@H](C)NC(=O)[C@H](C)NC(=O)[C@H](CC(=O)O)NC(=O)[C@H](CC(=O)O)NC1=O)NC(=O)[C@H](CC(C)(C)C)NC(=O)[C@H](CC(=O)O)NC2=O` (stereo partly drawn) [I-2017, Ac-PL3-Asp-Npg-B5-Asp-Asp-Ala-Ala-Phe-Asn-PyrR2-3Thi-BztA-Gln-NH2] yielded a pIC50 of 5.69.
Compound `CC(=O)N1CCC[C@]12CC=CCCCC1(CCCC=CCCCOC(=O)N3CC[C@@](C(=O)N[C@@H](Cc4ccsc4)C(=O)N[C@@H](Cc4c[nH]c5cc(Cl)ccc45)C(=O)N[C@@H](CO)C(N)=O)(C3)NC(=O)[C@H](CC(C)C)NC(=O)[C@H](Cc3ccccc3)NC(=O)[C@H](C)NC(=O)[C@H](C)NC(=O)[C@H](CC(=O)O)NC(=O)[C@H](CC(=O)O)NC1=O)NC(=O)[C@H](CC(C)(C)C)NC(=O)[C@H](CC(=O)O)NC2=O` (stereo partly drawn) [I-1436, Ac-PL3-Asp-Npg-B5-Asp-Asp-Ala-Ala-Phe-Leu-PyrS2-3Thi-6C1W-Ser-NH2] has a pIC50 of 6.92.
`CCCCOC(=O)N1CCC[C@]12CC=CCCCC1(CCCC=CCCCOC(=O)N3CC[C@@](C(=O)N[C@@H](Cc4ccccc4Cl)C(=O)N[C@@H](Cc4csc5ccccc45)C(=O)N[C@@H](C)C(N)=O)(C3)NC(=O)[C@H](CC(C)C)NC(=O)[C@H](Cc3ccccc3)NC(=O)[C@H](C)NC(=O)[C@H](C)NC(=O)[C@H](Cc3cccc(C(=O)O)c3)NC(=O)[C@H](CC(=O)O)NC1=O)NC(=O)[C@H](CC(C)(C)C)NC(=O)[C@H](CC(=O)O)NC2=O` (stereo partly drawn) [I-2304, CO2Bu-PL3-Asp-Npg-B5-Asp-3COOHF-Ala-Ala-Phe-Leu-PyrS2-2C1F-BztA-Ala-NH2] gave a pIC50 of 6.29.
